Data published in patent EP1075186B1, “METHOD OF HSV PROPHYLAXIS” (The Children's Hospital Research Foundation, priority 1998, dated 1999).

How the values were obtained:
[1] = test system: human foreskin fibroblast (HFF) cell monolayers; test: Toxicity effects controls (sham-inoculated compound treated HFF monolayers); type: cell-based; settings: for TOXICITY EFFECTS CONTROL: Experiment 4, Table 10
Description: Sham-incolulated, non-treated HFF cell monolayers were included along with the drug-treated monolayers as "cell monolayer controls". • 1. HSV-1 inoculated, non-compound treated HFF monolayers were included as "positive controls"; and • 2.
In the tables, the symbols have the meaning indicated: + = toxic; - = no toxicity; +/- = mild toxicity; ND = not done; T = toxicity effects interfered with CPE rating; CPE = cytopathic effect.

[2] = test system: VZV; test: In vitro assay with VZV on HFF cell monolayers; type: cell-based; settings: Example 2, Table 17, 0.1 mg/ml, footnote: this toxicity observation is questionable
Procedure: VZV was grown to a CPE level […] of 3-4 + on HFF cell monolayers. The VZV was scraped from the flask, centrifuged and the cell pellet was resuspended in 10 ml of complete medium. 100 to 200 µl of the VZV cell associated inoculum was inoculated onto confluent HFF cell monolayers by absorption for 60 minutes at 37°C. After absorption of the virus, the inoculum was aspirated from the cell monolayers.
The VZV-infected monolayers were rehydrated with medium containing the appropriate concentrations of compounds to be tested. All monolayers were incubated at 37°C. Development of VZV cytopathology was monitored daily for 7 days by inverted light microscopy. Titers were calculated by multiple regression analysis.

[3] = test system: HSV-2 strain 186; test: Mouse genital HSV-2 model, intravaginal prophylaxis; type: in vivo, Swiss Webster mice
Procedure: Sixty female Swiss Webster mice pretreated with medroxyprogesterone acetate were randomized to four groups of 15 to receive either Saline (control), 2 % Acyclovir, 2 % Compound 96, or 0.5% Compound 96. Animals were anesthetized by intraperitoneal injection of sodium pentabarbital and then administered 15 µl of control or test compound intravaginally in one treatment. They were then immediately challenged by intravaginal instillation with 15 µl of a suspension containing 10^4 plaque forming units HSV-2 strain 186. Vaginal swabs were collected on days 1 and 2 post-inoculation (PI) to assess the effect of treatment on vaginal replication in the genital tract. In addition, all animals were examined daily until day 21 PI for mortality and signs of infection (erythema, hair loss and hind limb paralysis).

[4] = test system: HSV-2 strain 186; test: as above; type: in vivo, Swiss Webster mice; settings: repeat study
[5] = Experiment 3, Table 7, 0.001 mg/ml, 24 hrs post incubation
[6] = Experiment 3, Table 7, 0.001 mg/ml, 48 hrs post incubation
[7] = Experiment 3, Table 7, 0.01 mg/ml, 24 hrs post incubation
[8] = Experiment 3, Table 7, 0.01 mg/ml, 48 hrs post incubation
[9] = Experiment 3, Table 7, 0.1 mg/ml, 24 hrs post incubation
[10] = Experiment 3, Table 7, 0.1 mg/ml, 48 hrs post incubation
[11] = Experiment 3, Table 7, 0.5 mg/ml, 24 hrs post incubation
[12] = Experiment 3, Table 7, 0.5 mg/ml, 48 hrs post incubation
[13] = Experiment 3, Table 7, 1 mg/ml, 24 hrs post incubation
[14] = Experiment 3, Table 7, 1 mg/ml, 48 hrs post incubation
[15] = Experiment 3, Table 7, 5 mg/ml, 24 hrs post incubation
[16] = Experiment 3, Table 7, 5 mg/ml, 48 hrs post incubation
[17] = 0.001 mg/ml, 24 hrs post incubation
[18] = 0.001 mg/ml, 48 hrs post incubation
[19] = 0.01 mg/ml, 24 hrs post incubation
[20] = 0.01 mg/ml, 48 hrs post incubation
[21] = 0.1 mg/ml, 24 hrs post incubation
[22] = 0.1 mg/ml, 48 hrs post incubation
[23] = 0.5 mg/ml, 24 hrs post incubation
[24] = 0.5 mg/ml, 48 hrs post incubation
[25] = 1 mg/ml, 24 hrs post incubation
[26] = 1 mg/ml, 48 hrs post incubation
[27] = 5 mg/ml, 24 hrs post incubation
[28] = 5 mg/ml, 48 hrs post incubation
[29] = Experiment 5, Table 12, 48 Hours Post Incubation, 0.001 mg/ml
[30] = Experiment 5, Table 12, 48 Hours Post Incubation, 0.01 mg/ml
[31] = Experiment 5, Table 12, 48 Hours Post Incubation, 1 mg/ml
[32] = Experiment 5, cell rounding, detaching from the monolayer, increased granularity, loss of normal morphology

## CC1=CC(C)=[N+]2CC[N+]3=C(C)C=C(C)[O][Co-3]23([n+]2cc[nH]c2C)([n+]2cc[nH]c2C)[O]1 [Compound 96]
[1]; Experiment 1, Table 1, 0.001 mg/ml, 24 h
  TOXICITY EFFECTS CONTROLS: -
[1]; Experiment 1, Table 1, 0.001 mg/ml, 48 h
  TOXICITY EFFECTS CONTROLS: -
[1]; Experiment 1, Table 1, 0.01 mg/ml, 24 h
  TOXICITY EFFECTS CONTROLS: -
[1]; Experiment 1, Table 1, 0.01 mg/ml, 48 h
  TOXICITY EFFECTS CONTROLS: -
[1]; Experiment 1, Table 1, 0.1 mg/ml, 24 h
  TOXICITY EFFECTS CONTROLS: -
[1]; Experiment 1, Table 1, 0.1 mg/ml, 48 h
  TOXICITY EFFECTS CONTROLS: -
[1]; Experiment 1, Table 1, 1 mg/ml, 24 h
  TOXICITY EFFECTS CONTROLS: -
[1]; Experiment 1, Table 1, 1 mg/ml, 48 h
  TOXICITY EFFECTS CONTROLS: -
[1]; Experiment 1, 1 mg/ml
  toxicity: lack of toxicity
[1]; Experiment 2, Table 4, 0.001 mg/ml, 24 h PI
  TOXICITY EFFECTS CONTROLS: -
[1]; Experiment 2, Table 4, 0.001 mg/ml, 48 h PI
  TOXICITY EFFECTS CONTROLS: -
[1]; Experiment 2, Table 4, 0.01 mg/ml, 24 h PI
  TOXICITY EFFECTS CONTROLS: -
[1]; Experiment 2, Table 4, 0.01 mg/ml, 48 h PI
  TOXICITY EFFECTS CONTROLS: -
[1]; Experiment 2, Table 4, 0.1 mg/ml, 24 h PI
  TOXICITY EFFECTS CONTROLS: -
[1]; Experiment 2, Table 4, 0.1 mg/ml, 48 h PI
  TOXICITY EFFECTS CONTROLS: -
[1]; Experiment 2, Table 4, 1 mg/ml, 24 h PI
  TOXICITY EFFECTS CONTROLS: -
[1]; Experiment 2, Table 4, 1 mg/ml, 48 h PI
  TOXICITY EFFECTS CONTROLS: -
[1]; [5]
  TOXICITY EFFECTS CONTROLS: -
[1]; [6]
  TOXICITY EFFECTS CONTROLS: -
[1]; [7]
  TOXICITY EFFECTS CONTROLS: -
[1]; [8]
  TOXICITY EFFECTS CONTROLS: -
[1]; [9]
  TOXICITY EFFECTS CONTROLS: +/-
[1]; [10]
  TOXICITY EFFECTS CONTROLS: +/-
[1]; [11]
  TOXICITY EFFECTS CONTROLS: -
[1]; [12]
  TOXICITY EFFECTS CONTROLS: -
[1]; [13]
  TOXICITY EFFECTS CONTROLS: -
[1]; [14]
  TOXICITY EFFECTS CONTROLS: +/-
[1]; [15]
  TOXICITY EFFECTS CONTROLS: +/-
[1]; [16]
  TOXICITY EFFECTS CONTROLS: +/-
[1]; [17]
  TOXICITY EFFECTS CONTROL: -
[1]; [18]
  TOXICITY EFFECTS CONTROL: -
[1]; [19]
  TOXICITY EFFECTS CONTROL: -
[1]; [20]
  TOXICITY EFFECTS CONTROL: -
[1]; [21]
  TOXICITY EFFECTS CONTROL: +/-
[1]; [22]
  TOXICITY EFFECTS CONTROL: +/-
[1]; [23]
  TOXICITY EFFECTS CONTROL: -
[1]; [24]
  TOXICITY EFFECTS CONTROL: -
[1]; [25]
  TOXICITY EFFECTS CONTROL: +/-
[1]; [26]
  TOXICITY EFFECTS CONTROL: +/-
[1]; [27]
  TOXICITY EFFECTS CONTROL: +/-
[1]; [28]
  TOXICITY EFFECTS CONTROL: +
[1]; [29]
  TOXICITY EFFECTS CONTROLS: -
[1]; [30]
  TOXICITY EFFECTS CONTROLS: -
[1]; [31]
  TOXICITY EFFECTS CONTROLS: -
[1]; Experiment 5, Table 12, 48 Hours Post Incubation, 2 mg/ml
  TOXICITY EFFECTS CONTROLS: +/-
[1]; Experiment 5, Table 12, 48 Hours Post Incubation, 5 mg/ml
  TOXICITY EFFECTS CONTROLS: +/-
[1]; [32]
  toxicity: more pronounced in the 0.5 and the 0.1 mg/ml concentrations
[2]
  VIRUCIDAL EFFICACY 7 Days Post Inoculation Efficacy: T?
[3]; 2 % and 0.5% groups, 15 mice each
  signs of genital disease: none of these animals developed any signs of genital disease
[3]; 2 % and 0.5% groups, 15 mice each, to day 21 PI
  mortality: all lived
[3]; topical (intravaginal) application before HSV-2 challenge
  vaginal herpes infection: completely blocked
[3]; vaginal swabs on day 1 or 2 PI
  virus in the genital tract: no detectable virus
[4]; concentrations of 0.1 % or more
  protection from visible infection and death: completely protected
[4]; lowest concentration of 0.01 %
  animals protected from death: 6 of 10

## CC1=C(Cl)C(C)=[N+]2CC[N+]3=C(C)C(Cl)=C(C)[O][Co-3]23([n+]2cc[nH]c2)([n+]2cc[nH]c2)[O]1 [Compound 93]
[1]; [5]
  TOXICITY EFFECTS CONTROLS: -
[1]; [6]
  TOXICITY EFFECTS CONTROLS: -
[1]; [7]
  TOXICITY EFFECTS CONTROLS: -
[1]; [8]
  TOXICITY EFFECTS CONTROLS: -
[1]; [9]
  TOXICITY EFFECTS CONTROLS: -
[1]; [10]
  TOXICITY EFFECTS CONTROLS: +/-
[1]; [11]
  TOXICITY EFFECTS CONTROLS: -
[1]; [12]
  TOXICITY EFFECTS CONTROLS: -
[1]; [13]
  TOXICITY EFFECTS CONTROLS: -
[1]; [14]
  TOXICITY EFFECTS CONTROLS: -
[1]; [15]
  TOXICITY EFFECTS CONTROLS: +/-
[1]; [16]
  TOXICITY EFFECTS CONTROLS: +/-
[1]; [29]
  TOXICITY EFFECTS CONTROLS: -
[1]; [30]
  TOXICITY EFFECTS CONTROLS: -
[1]; [31]
  TOXICITY EFFECTS CONTROLS: +/-
[1]; [32]
  toxicity: more pronounced in the 0.5 and the 0.1 mg/ml concentrations
[2]
  VIRUCIDAL EFFICACY 7 Days Post Inoculation Efficacy: T?

## CC1=[N+]2CC[N+]3=C(C)C=C(c4ccccc4)[O][Co-3]23([n+]2cc[nH]c2C)([n+]2cc[nH]c2C)[O]C(c2ccccc2)=C1 [Compound 102]
[1]; [17]
  TOXICITY EFFECTS CONTROL: -
[1]; [18]
  TOXICITY EFFECTS CONTROL: -
[1]; [19]
  TOXICITY EFFECTS CONTROL: -
[1]; [20]
  TOXICITY EFFECTS CONTROL: -
[1]; [21]
  TOXICITY EFFECTS CONTROL: -
[1]; [22]
  TOXICITY EFFECTS CONTROL: -
[1]; [23]
  TOXICITY EFFECTS CONTROL: -
[1]; [24]
  TOXICITY EFFECTS CONTROL: -
[1]; [25]
  TOXICITY EFFECTS CONTROL: +/-
[1]; [26]
  TOXICITY EFFECTS CONTROL: +/-
[1]; [27]
  TOXICITY EFFECTS CONTROL: +/-
[1]; [28]
  TOXICITY EFFECTS CONTROL: +
